Data: patent publication US20210353648A1, “GRAPIPRANT UNIT DOSAGE FORMS” (Arrys Therapeutics, Inc., priority 2018, published 2021)
Like-named read-outs stand apart in the source and are kept apart here.

Legend:
[1] = tested on: urinary N-terminal telopeptide of type I collagen; experiment: Multiple ascending dose study: bone marker, percent change from baseline; assay type: in vivo, human
Source text: (§1) Each bone marker (serum bone-specific alkaline phosphatase and osteocalcin, urinary N-terminal telopeptide of type I collagen) is expressed as percentage change from baseline and analyzed. To assess influence of potential outliers on the bone marker data analyses, the following analysis can be conducted first. Potential outliers are identified as outside an interval consistent with a normal distribution defined as (median±3.5 standard deviations [SD]) for each dosing regimen and day combination. The SD is a pooled estimate across all dosing regimen and day combinations, each estimated by the scaled inter-quartile range 0.75 (Q75-Q25). Explicitly, for each dosing regimen and day combination, its SD denoted by SDi is estimated by its scaled inter-quartile range 0.75 (Q75-Q25). The overall SD is estimated as
(§2) Then, the (percent change from baseline) values are analyzed with a mixed effect model, with treatment (dosing regimen), day, and treatment-by-day interaction effects considered fixed and subject considered random. Baseline value is not included as a covariate. The model is fit separately to each group of cohorts (Cohorts 1-3 and 5). For Cohorts 1-3, days of interest are day 7 and day 14. For Cohort 5, days of interest are day 10 and day 17. For each group of cohorts, compound symmetry is assumed, and Restricted Maximum Likelihood Estimates are used. The least squares means (LSMeans) and 95% confidence intervals (CI) are obtained for each treatment and day combination. Within each treatment, LSMean percent changes from baseline at each post-dosing day (i.e., day 7 and day 14 for Cohorts 1-3, and day 10 and day 17 for Cohort 5) are obtained, along with their 95% CIs. In addition, for each post-dosing day, differences of the LSMean percent changes from baseline between active dosed regimen and placebo are obtained. The p-values comparing these differences from placebo are obtained using t-tests. No adjustments are made for multiple comparisons. […] If outliers are identified, additional mixed model analyses using the same mixed effect modeling as detailed above are to be conducted excluding the outliers. […] Individual percent-change-from-baseline profile versus time plots are plotted by treatment regimen.

[2] = tested on: serum bone-specific alkaline phosphatase; experiment: as above; assay type: in vivo, human; conditions: for change from baseline in bone-specific alkaline phosphatase (least squares mean): 300 mg BID
Source text: as §1, §2

[3] = Phase 1 multiple ascending dose study of grapiprant tablets: safety and tolerability
Source text: Study Design: This was a randomized, investigator-blind, subject-blind, sponsor-open, placebo controlled, sequential parallel-group, multiple ascending dose study of grapiprant tablets.
Safety Evaluations: Safety evaluations included clinical monitoring, adverse events (AEs), clinical laboratory tests including renal function tests, bone markers (serum bone-specific alkaline phosphatase and osteocalcin and urinary N-terminal telopeptide of type I collagen), vital signs (heart rate and blood pressure), and 12-lead ECGs.
Safety Analyses: Safety data are presented in tabular and/or graphical format and summarized descriptively.
Bone markers were analyzed as percentage change from baseline and the influence of potential outliers was assessed.

[4] = Phase 1 crossover food effect study of 375 mg grapiprant tablets: pharmacokinetics; assay type: in vivo, human; conditions: for AUC(0-inf) / Cmax / AUC(0-t) / half-life / Tmax: human, serum, po, 375 mg, single oral dose, healthy subjects (N = 12); for AUC(0-inf) / Cmax / AUC(0-t) / half-life: arithmetic mean; for AUC(0-t): read-out: AUC(0-tlast); for half-life: read-out: t½ (converted); for Tmax: median
Protocol: This study was a randomized, open-label, single dose, 2-period crossover design. Each subject participated in 2 study periods. In each study period, subjects received a dose of 375 mg administered as 3×125 mg tablets of grapiprant under fasted or fed conditions in a crossover manner according to a randomized dosing sequence. The fed condition consisted of a standardized high-fat meal. Following an initial screening period of no longer than 28 days, 12 eligible subjects were to be randomized to the 2 treatment sequences and 2 treatment period sessions as shown in Table 6-1.
In each study period, subjects received 375 mg grapiprant (as 3×125 mg tablets) under either fed or fasted conditions. Each subject received 2 single doses: Day 1 and Day 8.
Blood samples were collected at the following times: 0 (just prior to dosing), 0.5, 1, 1.5, 2, 2.5, 3, 4, 6, 8, 12, 16, 24 and 48 hours following each dosing. The primary pharmacokinetic endpoints of the study were AUC(0-tlast) (area under the serum concentration-time curve from time 0 to the time of the last quantifiable concentration), AUC(0-inf) (AUC from time 0 to infinite time), and Cmax (maximum observed serum concentration) of serum grapiprant. The secondary pharmacokinetic endpoints of the study were Tmax (the time to Cmax) and t½ (terminal elimination half-life), as the data permitted.
Log-transformed AUC(0-inf), AUC(0-tlast) and Cmax were each analyzed using a mixed effects model containing sequence, treatment (fed and fasted), and period as the fixed effects and subject (within sequence) as the random effect. The SAS procedure PROC MIXED was used for the analysis. Compound symmetry was assumed, and Restricted Maximum Likelihood Estimates (REML) were utilized.
For AUC(0-inf), AUC(0-tlast) and Cmax, on the natural log scale, estimates of the adjusted mean difference between grapiprant tablet under fed condition (test) and grapiprant under fasted condition (reference) and their corresponding 90% confidence intervals were calculated.
The anti-logs (exponent) of the difference and confidence interval were taken to estimate the mean ratio (relative bioavailability) and its corresponding 90% confidence interval. Vital signs, adverse events, ECG parameters, and safety laboratory values were summarized with descriptive statistics.

[5] = 50 mg, 14-day oral administration, healthy adults, post-dosing day 7
[6] = 50 mg, 14-day oral administration, healthy adults, post-dosing day 14
[7] = 150 mg, 14-day oral administration, healthy adults, post-dosing day 7
[8] = 150 mg, 14-day oral administration, healthy adults, post-dosing day 14
[9] = 250 mg, 17-day oral administration, elderly with minor renal impairment, post-dosing day 10
[10] = 250 mg, 17-day oral administration, elderly with minor renal impairment, post-dosing day 17
[11] = 300 mg, 14-day oral administration, healthy adults, post-dosing day 7
[12] = 300 mg, 14-day oral administration, healthy adults, post-dosing day 14
[13] = elderly subjects, 250 mg BID versus placebo
[14] = 375 mg tablets, adjusted geometric means, N = 12
[15] = 375 mg tablets, standard high-fat meal compared to fasted
[16] = 375 mg tablet-fed (high-fat meal)

## CCc1nc2c(C)nc(C)cc2n1-c1ccc(CCNC(=O)NS(=O)(=O)c2ccc(C)cc2)cc1 [Grapiprant, N-((4-(2-ethyl-4,6-dimethyl-1H-imidazo[4,5-c]pyridin-1-yl)phenethyl)carbamoyl)-4-methylbenzenesulfonamide]
[1]; [5]
  LS Mean change in N-telopeptide of type I collagen: about 14.77%
[1]; [6]
  LS Mean change in N-telopeptide of type I collagen: about −23.50%
[1]; 150 mg BID, Day 14, healthy subjects, placebo 34.74%, p=0.050
  change from baseline in urine N-telopeptide (least squares mean): −3.97%
[1]; [7]
  LS Mean change in N-telopeptide of type I collagen: about −9.78%
[1]; [8]
  LS Mean change in N-telopeptide of type I collagen: about −38.72%
[1]; [9]
  LS Mean change in N-telopeptide of type I collagen: about −9.62%
[1]; [10]
  LS Mean change in N-telopeptide of type I collagen: about −16.76%
[1]; [11]
  LS Mean change in N-telopeptide of type I collagen: about 12.69%
[1]; [12]
  LS Mean change in N-telopeptide of type I collagen: about −21.33%
[1]; [13]
  bone marker difference between treatment groups: no statistically significant differences
[2]; [5]
  LS Mean Difference in bone-specific alkaline phosphatase: about −8.62%
[2]; [6]
  LS Mean Difference in bone-specific alkaline phosphatase: about 7.16%
[2]; [7]
  LS Mean Difference in bone-specific alkaline phosphatase: about 4.76%
[2]; [8]
  LS Mean Difference in bone-specific alkaline phosphatase: about 1.23%
[2]; [9]
  LS Mean Difference in bone-specific alkaline phosphatase: about −1.75%
[2]; [10]
  LS Mean Difference in bone-specific alkaline phosphatase: about 3.88%
[2]; Day 7, healthy subjects, placebo 4.70%, p=0.020
  change from baseline in bone-specific alkaline phosphatase (least squares mean): 20.80%
[2]; Day 14, healthy subjects, placebo −5.36%, p=0.006
  change from baseline in bone-specific alkaline phosphatase (least squares mean): 14.36%
[2]; [11]
  LS Mean Difference (of percent change from baseline) in bone-specific alkaline phosphatase: about 16.10%
[2]; [12]
  LS Mean Difference in bone-specific alkaline phosphatase: about 19.72%
[2]; [13]
  bone marker difference between treatment groups: no statistically significant differences
[3]; 50 mg BID, healthy subjects
  AEs reported: 7 AEs
[3]; 50 mg BID, healthy subjects (9 treated)
  subjects reporting AEs: 4 subjects
[3]; 150 mg BID, healthy subjects
  AEs reported: 23 AEs
[3]; 150 mg BID, healthy subjects (9 treated)
  subjects reporting AEs: 7 subjects
[3]; 250 mg BID, elderly subjects
  AEs reported: 44 AEs
[3]; 250 mg BID, elderly subjects (15 treated)
  subjects reporting AEs: 14 subjects
[3]; 250 mg BID, elderly subjects with mild renal impairment
  tolerability: well tolerated
[3]; 300 mg BID, healthy subjects
  AEs reported: 13 AEs
[3]; 300 mg BID, healthy subjects (9 treated)
  subjects reporting AEs: 6 subjects
[3]; all cohorts
  deaths: No deaths
  severity of most treatment-emergent AEs: mild
  vital signs and ECGs: no clinically significant mean changes from baseline
[3]; elderly subjects with mild renal impairment, 250 mg BID, versus placebo group
  systolic blood pressure: small increase from baseline
[3]; grapiprant versus placebo
  laboratory safety tests, including renal function tests: no clinically significant findings
[3]; healthy subjects, doses up to 300 mg BID, triplicate BP monitoring
  systolic blood pressure: no difference between changes from baseline compared with placebo
[3]; multiple-dose administration for 14 days, doses up to 300 mg BID, healthy adult subjects
  tolerability: well tolerated
[3]; one elderly subject, 250 mg BID
  withdrawal due to AE: non-drug related AE of ventricular tachycardia
[3]; one healthy subject, 150 mg BID
  serious AEs considered related to the study medication: decreased hemoglobin, decreased hematocrit, and gastrointestinal hemorrhage
[4]; [14]
  Geometric Mean Ratio (fed/fasted) of AUC(0-inf): 87.48%
  Geometric Mean Ratio (fed/fasted) of AUC(0-tlast): 87.42%
  Geometric Mean Ratio (fed/fasted) of Cmax: 64.16%
[4]; [15]
  decrease in AUC: 13%
  decrease in Cmax: 36%
[4]; 375 mg tablet-fasted
  AUC(0-inf): 29100 ng·h/mL
  Cmax: 8990 ng/mL
  AUC(0-t): 28900 ng·h/mL
  half-life: 9.48 h
  Tmax: 1 h
[4]; [16]
  AUC(0-inf): 24800 ng·h/mL
  Cmax: 5840 ng/mL
  AUC(0-t): 24600 ng·h/mL
  half-life: 8.52 h
  Tmax: 4 h
